Data as given in EP4722201A1, “3-PHENYLISOXAZOLINE-5-CARBOXAMIDE COMPOUND, AND PREPARATION METHOD THEREFOR, HERBICIDAL COMPOSITION THEREOF AND USE THEREOF” (Jiangsu Flag Chemical Industry Co., Ltd, priority 2023, dated 2024).

Experiments:
Format in all cases: in vivo
[1] = tested on: Cyperus iria; experiment: Indoor herbicide activity determination, post-emergence (stem and leaf spray at 2-4 leaf stage); conditions: 504 h, 60 g a.i./ha, determined 21 days later, read-out: Inhibition rate of fresh weight, Cyperus iria
Source text: (§1) The testing method for herbicide activity of the compound of the present invention was as follows:
(§2) Post-emergence: an appropriate quantity of seeds of gramineous weeds (Echinochloa crusgalli, Eleusine indica, Digitaria sanguinalis, Alopecurus japonicus, Beckmannia syzigachne, Leptochloa chinensis, Polypogon fugax, Alopecurus aequalis, Lolium multiflorum, Poa annua, Aegilops tauschii, Avena fatua, Alopecurus myosuroides, Alopecurus japonicus and Alopecurus aequalis), broad-leaved weeds (Eclipta prostrata, Amaranthus retroflexus, Rorippa indica, Malachium aquaticum, Veronica polita, Conyza canadensis, Sesbania cannabina, Sagittariatrifolia and Schoenoplectiella juncoides), and Cyperus iria were sown in plastic pots having a diameter of 7 cm and holes at the bottom and filled with nutrient soil (sandy soil, pH 6.1, organic matter 1%) respectively, the seeds were covered with an appropriate amount of soil after being sown, then the soil was wetted with water from the bottom, the seeds were cultured in a constant-temperature illuminated culture room until a 2-4 leaf stage, and stems and leaves underwent spray treatment. After the treatment, the test materials were placed in a laboratory and cultured in the constant-temperature illuminated culture room after the liquid was naturally dry in the shade, and results were determined 21 days later. Inhibition rate of fresh weight % = (1−(fresh weight of treated plants)/(fresh weight of control plants)) × 100% [formula]

[2] = tested on: Digitaria sanguinalis; experiment: as above; conditions: 504 h, 60 g a.i./ha, determined 21 days later, read-out: Inhibition rate of fresh weight, Digitaria sanguinalis
Source text: as §1, §2

[3] = tested on: Eclipta prostrata; experiment: as above; conditions: 504 h, 60 g a.i./ha, determined 21 days later, read-out: Inhibition rate of fresh weight, Eclipta prostrata
Source text: as §1, §2

[4] = tested on: Alopecurus japonicus; experiment: Indoor herbicide activity determination, Seed Treatment; pre-emergence (soil spray); conditions: Dosage 240 g a.i./ha
Outline: (§3)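 Weed seeds sown in 7 cm pots of sandy nutrient soil (pH 6.1, 1% organic matter), kept 24 h in a constant-temperature lit room, then soil sprayed by traveling spray tower (flow 390 mL/min). Fresh-weight inhibition % versus untreated controls scored 21 days later.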

[5] = tested on: Alopecurus myosuroides; experiment: as above; conditions: Dosage 240 g a.i./ha
Outline: as §3

[6] = tested on: Eleusine indica; experiment: as above; conditions: Dosage 240 g a.i./ha
Outline: as §3

[7] = tested on: Leptochloa chinensis; experiment: as above; conditions: Dosage 240 g a.i./ha
Outline: as §3

[8] = tested on: Lolium multiflorum; experiment: as above; conditions: Dosage 240 g a.i./ha
Outline: as §3

SMILES | inhibition at 60 g/ha [1] | inhibition at 60 g/ha [2] | inhibition at 60 g/ha [3] | Herbicidal activities, Alopecurus japonicus (inhibition rate class) [4] | Herbicidal activities, Alopecurus myosuroides (inhibition rate class) [5] | Herbicidal activities, Eleusine indica (inhibition rate class) [6] | Herbicidal activities, Leptochloa chinensis (inhibition rate class) [7] | Herbicidal activities, Lolium multiflorum (inhibition rate class) [8]
C=CC1(C(=O)N[C@H]2C[C@@H](C(=O)O)C2)CC(c2cc(Cl)cc(Cl)c2)=NO1 (mixture of isomers) [I-37] | 80 to 100% | 80 to 100% | 60 to 80% | A (A indicates that the inhibition rate was greater than or equal to 80% to 100%) | A (A indicates that the inhibition rate was greater than or equal to 80% to 100%) | A (A indicates that the inhibition rate was greater than or equal to 80% to 100%) | A (A indicates that the inhibition rate was greater than or equal to 80% to 100%) | A (A indicates that the inhibition rate was greater than or equal to 80% to 100%)
C=CC1(C(=O)N[C@H]2C[C@@H](C(=O)OC)C2)CC(c2cc(Cl)cc(Cl)c2)=NO1 (mixture of isomers) [I-39] | 80 to 100% | 80 to 100% | 60 to 80% | A (A indicates that the inhibition rate was greater than or equal to 80% to 100%) | A (A indicates that the inhibition rate was greater than or equal to 80% to 100%) | A (A indicates that the inhibition rate was greater than or equal to 80% to 100%) | A (A indicates that the inhibition rate was greater than or equal to 80% to 100%) | A (A indicates that the inhibition rate was greater than or equal to 80% to 100%)
C=CC1(C(=O)N[C@H]2C[C@@H](C(=O)O)C2)CC(c2cc(F)cc(C(F)(F)F)c2)=NO1 (mixture of isomers) [I-49] | 80 to 100% | 60 to 80% | 60 to 80% | A (A indicates that the inhibition rate was greater than or equal to 80% to 100%) | A (A indicates that the inhibition rate was greater than or equal to 80% to 100%) | A (A indicates that the inhibition rate was greater than or equal to 80% to 100%) | A (A indicates that the inhibition rate was greater than or equal to 80% to 100%) | A (A indicates that the inhibition rate was greater than or equal to 80% to 100%)
C=CC1(C(=O)N[C@H]2C[C@@H](C(=O)OC)C2)CC(c2cc(F)cc(C(F)(F)F)c2)=NO1 (mixture of isomers) [I-51] | 80 to 100% | 60 to 80% | 60 to 80% | A (A indicates that the inhibition rate was greater than or equal to 80% to 100%) | A (A indicates that the inhibition rate was greater than or equal to 80% to 100%) | A (A indicates that the inhibition rate was greater than or equal to 80% to 100%) | A (A indicates that the inhibition rate was greater than or equal to 80% to 100%) | A (A indicates that the inhibition rate was greater than or equal to 80% to 100%)
C=CC1(C(=O)N[C@H]2C[C@@H](C(=O)O)C2)CC(c2cc(F)cc(OC(F)(F)F)c2)=NO1 (mixture of isomers) [I-57] | 80 to 100% | 80 to 100% | 60 to 80% | A (A indicates that the inhibition rate was greater than or equal to 80% to 100%) | A (A indicates that the inhibition rate was greater than or equal to 80% to 100%) | A (A indicates that the inhibition rate was greater than or equal to 80% to 100%) | A (A indicates that the inhibition rate was greater than or equal to 80% to 100%) | A (A indicates that the inhibition rate was greater than or equal to 80% to 100%)
C=CC1(C(=O)N[C@H]2C[C@@H](C(=O)OC)C2)CC(c2cc(F)cc(OC(F)(F)F)c2)=NO1 (mixture of isomers) [I-59] | 80 to 100% | 80 to 100% | 60 to 80% | A (A indicates that the inhibition rate was greater than or equal to 80% to 100%) | A (A indicates that the inhibition rate was greater than or equal to 80% to 100%) | A (A indicates that the inhibition rate was greater than or equal to 80% to 100%) | A (A indicates that the inhibition rate was greater than or equal to 80% to 100%) | A (A indicates that the inhibition rate was greater than or equal to 80% to 100%)
CC1(C(=O)N[C@H]2C[C@@H](C(=O)O)C2)CC(c2cc(F)cc(F)c2)=NO1 (mixture of isomers) [I-111] | 80 to 100% | 80 to 100% | 60 to 80% | A (A indicates that the inhibition rate was greater than or equal to 80% to 100%) | A (A indicates that the inhibition rate was greater than or equal to 80% to 100%) | A (A indicates that the inhibition rate was greater than or equal to 80% to 100%) | A (A indicates that the inhibition rate was greater than or equal to 80% to 100%) | A (A indicates that the inhibition rate was greater than or equal to 80% to 100%)
COC(=O)[C@H]1C[C@@H](NC(=O)C2(C)CC(c3cc(F)cc(F)c3)=NO2)C1 (mixture of isomers) [I-113] | 80 to 100% | 80 to 100% | 60 to 80% | A (A indicates that the inhibition rate was greater than or equal to 80% to 100%) | A (A indicates that the inhibition rate was greater than or equal to 80% to 100%) | A (A indicates that the inhibition rate was greater than or equal to 80% to 100%) | A (A indicates that the inhibition rate was greater than or equal to 80% to 100%) | A (A indicates that the inhibition rate was greater than or equal to 80% to 100%)
